Experimental data: paper PMC12310481, “Sequence, characterization and pharmacological analyses of the adipokinetic hormone receptor in the stick insect, Carausius morosus” (Frontiers in Endocrinology, 2025)
Several values for one entry are separate records, joined by “and”; a condition that tells them apart may be missing. Identical values can stand only once. Non-standard residues stand in square brackets, D forms with d. Residues, ends and D or L forms follow the SMILES beside them. pGlu = O=C1CC[C@@H](C(=O)O)N1

Key:
[1] = system: endogenously expressed purinoceptors; assay: ATP positive control in the bioluminescence assay; type: cell-based, Chinese hamster; details: 50 μM ATP
Protocol: Synthetic peptide stocks of naturally-occurring AKH-related peptides [corazonin, adipokinetic hormone corazonin-like peptide (ACP)], alanine-substituted analogs of Carmo-HrTH-II, natural C. morosus AKH peptides, and several AKHs from other arthropod species in synthetic form were used for preparation of serial dilutions all of which were prepared in assay media (DMEM-F12 media containing 0.1% bovine serum albumin, 1X antimycotic-antibiotic) and loaded in triplicate or quadruplicate into 96-well white luminescence plates (Greiner Bio-One, Germany). Cells stably expressing Carmo-AKHR and transiently expressing aequorin were loaded with an automated injector unit into each individual well containing different test compounds at various concentrations, including assay media alone (negative control wells) and 50 μM ATP (positive control wells) acting on endogenously expressed purinoceptors ([34], [35]). Immediately after injection of the cells into each well, luminescence was measured for 20 s using a Synergy 2 Multi-Mode Microplate Reader (BioTek, Winooski, VT, USA). […] Data were analyzed using a one-way or two-way ANOVA and Tukey’s multiple comparisons post-hoc test, with differences between treatments considered significant if p<0.05.

[2] = system: Carausius morosus AKH receptor (Carmo-AKHR); assay: Calcium bioluminescence (aequorin) reporter assay, CHO-K1 cells stably expressing Carmo-AKHR; type: cell-based; details: for EC50: CHO-K1 stably expressing Carmo-AKHR, transiently aequorin, luminescence measured 20 s, from dose-response activation curves, 3 to 4 independent biological replicates, normalized to ATP maximum, read-out: EC50 value; for Fold-reduction in activity (receptor activation relative to Carmo-HrTH-II): ratio of EC50 relative to Carmo-HrTH-II
Protocol: Functional activation of Carmo-AKHR was carried out by following mammalian cell culture procedures as previously described ([20], [29]) with the following modifications. […] At 24 h post-transfection, cells were selected in DMEM:F12 media containing 10% heat-inactivated fetal bovine serum (Wisent, St. Bruno, QC), 1x antimycotic-antibiotic and 600 μg/mL geneticin (G418) until clonal recombinant cells were evident in transfected cells while no live cells were present in non-transfected CHO-K1 cells (control). Individual clonal recombinant colonies were seeded into separate wells of a 96 well cell-culture dish (Sarstedt Inc., Montreal, QC) and grown to confluence while maintaining geneticin selection. To identify clonal recombinant lines with optimal Carmo-AKHR activity yielding the greatest signal-to-noise ratio, individual clonal recombinant lines were assayed in the bioluminescence reporter assay as described previously ([30]). […] The recombinant cell line showing the optimal luminescent response with greatest signal-to-noise ratio was expanded for preparation of cryo-stocks and subsequent detailed investigation of receptor specificity. […] Bruno, QC), 250 μg/mL Geneticin (MilliporeSigma Canada Ltd., Oakville, ON) and 1X antimycotic-antibiotic (ThermoFisher Scientific, Whitby, ON). […] Transfection was completed with PolyJetTM DNA In Vitro Transfection Reagent (FroggaBio, Toronto, ON) following manufacturer recommendations for transfection of adherent cells. At 48 hours post-transfection, cells were detached from culture flasks using Dulbecco's PBS (Wisent, St. Bruno, QC) containing 5 mM Ethylenediaminetetraacetic acid (EDTA) and were prepared for the functional assay as previously described ([30]). […] Immediately after injection of the cells into each well, luminescence was measured for 20 s using a Synergy 2 Multi-Mode Microplate Reader (BioTek, Winooski, VT, USA). […] Data were analyzed using a one-way or two-way ANOVA and Tukey's multiple comparisons post-hoc test, with differences between treatments considered significant if p<0.05.

[3] = system: Carausius morosus AKH receptor (Carmo-AKHR); type: cell-based; details: transient Carmo-AKHR, co-expressing murine promiscuous G protein
[4] = system: Carausius morosus; details: in vivo bioassay, stick insect; cited from earlier work
Source text: C. morusus produces decapeptide AKHs that function optimally via the Carmo-AKHR. Two shorter bioanalogs with high identity to Carmo-HrTH were available for testing in the receptor activation assay: Triin-AKH, an amidated nonapeptide that ends in Gly^9 and the amidated octapeptide, Peram-CAH-II that ends in Trp^8. These peptides produced receptor activation curves with EC50 values similar to those of the endogenous AKH peptides ( Table 2 ). Taken on its own, this may indicate that the C-terminal amino acids of Carmo-HrTH (thus Thr^10 and Gly^9) are not critical for activation of Carmo-AKHR, and ... || Replacing the aromatic amino acids, Phe^4 or Trp^8 that are iconic for most natural members of the AKH family, with a nonpolar amino acid like Ala, completely abolished receptor activation in the current in vitro study. Earlier in vivo investigations on L. migratoria ([58]), as well as AKH/RPCH ligand-receptor model studies on S. gregaria and D. pulex made it clear that these two aromatic residues are critical for receptor binding ([55], [56]). […] Clearly, this position in the AKH ligand appear ...

Compound: Nc1ncnc2c1ncn2[C@@H]1O[C@H](COP(=O)(O)OP(=O)(O)OP(=O)(O)O)[C@@H](O)[C@H]1O [ATP]
- Maximal luminescent response [1]: about 12 000

Compound: CC(C)C[C@H](NC(=O)[C@@H]1CCC(=O)N1)C(=O)N[C@H](C(=O)N[C@@H](Cc1ccccc1)C(=O)N[C@H](C(=O)N1CCC[C@H]1C(=O)N[C@@H](CO)C(=O)N[C@@H](Cc1c[nH]c2ccccc12)C(N)=O)[C@@H](C)O)[C@@H](C)O [Aedae-AKH] ([pGlu]LTFTPSW-NH2)
- EC50 [2]: 1.03 µM
- Fold-reduction in activity (receptor activation relative to Carmo-HrTH-II) [2]: 14 fold and 14.00 fold
- Luminescence relative to assay media (BSA) alone [3]: ~ 3 fold

Compound: CC(C)C[C@H](NC(=O)[C@@H]1CCC(=O)N1)C(=O)N[C@@H](CC(N)=O)C(=O)N[C@@H](Cc1ccccc1)C(=O)N[C@H](C(=O)N1CCC[C@H]1C(=O)N[C@@H](CC(N)=O)C(=O)N[C@@H](Cc1c[nH]c2ccccc12)C(=O)NCC(=O)N[C@H](C(N)=O)[C@@H](C)O)[C@@H](C)O [Locmi-AKH-I] ([pGlu]LNFTPNWGT-NH2)
- EC50 [2]: 4.14 µM
- Hypertrehalosemic effect in vivo (in words) [4]: biological function is impaired

Compound: CC(C)C[C@H](NC(=O)[C@@H]1CCC(=O)N1)C(=O)N[C@H](C(=O)N[C@@H](Cc1ccccc1)C(=O)N[C@H](C(=O)N1CCC[C@H]1C(=O)N[C@@H](CC(N)=O)C(=O)N[C@@H](Cc1c[nH]c2ccccc12)C(N)=O)[C@@H](C)O)[C@@H](C)O [Peram-CAH-II] ([pGlu]LTFTPNW-NH2)
- EC50 [2]: 0.388 µM
- Fold-reduction in activity (receptor activation relative to Carmo-HrTH-II) [2]: 5 fold and 5.28 fold
- Hypertrehalosemic effect in vivo (in words) [4]: only about a third of what the native decapeptide achieved

Compound: CC(C)C[C@H](NC(=O)[C@@H]1CCC(=O)N1)C(=O)N[C@H](C(=O)N[C@@H](Cc1ccccc1)C(=O)N[C@H](C(=O)N1CCC[C@H]1C(=O)N[C@@H](CC(N)=O)C(=O)N[C@@H](Cc1c[nH]c2ccccc12)C(=O)NCC(=O)N[C@@H](CO)C(N)=O)[C@@H](C)O)[C@@H](C)O [Phyle-CC] ([pGlu]LTFTPNWGS-NH2)
- EC50 [2]: 0.018 µM
- Fold-reduction in activity (receptor activation relative to Carmo-HrTH-II) [2]: 0.24 fold
- Hypertrehalosemic effect in vivo (in words) [4]: not at all (in vivo) affected

Compound: CC(C)C[C@H](NC(=O)[C@@H]1CCC(=O)N1)C(=O)N[C@@H](CC(N)=O)C(=O)N[C@@H](Cc1ccccc1)C(=O)N[C@H](C(=O)N1CCC[C@H]1C(=O)N[C@@H](CC(N)=O)C(=O)N[C@@H](Cc1c[nH]c2ccccc12)C(=O)NCC(=O)N[C@@H](CO)C(N)=O)[C@@H](C)O [Phymo-AKH] ([pGlu]LNFTPNWGS-NH2)
- EC50 [2]: 5.05 µM
- Fold-reduction in activity (receptor activation relative to Carmo-HrTH-II) [2]: 68.66 fold
- Hypertrehalosemic effect in vivo (in words) [4]: absence of function in vivo
